The structures appear in SMILES notation.

Data set [1] deals with human Somatostatin 4 receptor (SSTR4) (Homo sapiens (Human), UniProt P31391). Kind of data set: cAMP assay with human somatostatin 4 receptor (hSSTR4 expressing H4 cells). It is filed as cell-based. The following applies: cAMP assay, read-out: SSTR4 agonism EC50. On the procedure:
Camp Assay Method Description for cAMP Assay with Human Somatostatin 4 Receptor
The activation of the SSTR4 receptor (Gi coupled) causes an inhibition of intracellular cAMP after stimulation with Forskolin, which can be quantifiable by use of a suitable assay Kit and an adequate plate reader. This technique is used to characterize pharmacological effects of the SSTR4 receptor agonists by use of hSSTR4 expressing H4 cells.
Compounds are dissolved and diluted in DMSO. The final test solution contains 1% DMSO. […] Cells are centrifuged and suspended in assay buffer (incl. 1:100 diluted Alexa antibody).
For the assay 5 μl of a cell suspension (approximately 5000 cells/well)—incl. Alexa antibody (diluted 1:100) are added into a 384 well MTP microtitre plate excepting one row or column (depending on the plate layout), which is reserved for the standard curve. Then 2 μl of compound sample is added as concentration response curve (e.g. 1e-5 M to 6e-10 M), usually in triplicates. Each assay contains incubations with vehicle controls instead of compound as controls for non-inhibited cAMP generation (100% CTL; ‘high values’) and incubations with 1 μM Somatosatin as controls for full inhibition and background (0% CTL; […]). […] Then the plates are shaken briefly and incubated for 60 min at room temperature. After 60 min 10 μl of the detection mix is added into all wells followed by an additional incubation period of 1 h. The plates are read in a suitable plate reader.
From this ratio, cAMP concentrations are calculated from standard curve and the EC50 is estimated by least square curve fit program.
The EC50 values were obtained with the aid of the above described cAMP ASSAY.
(Changes in cAMP serve as a functional read-out for many G protein-coupled receptors.)

Data set [2] can be described thus: Metabolic stability in pooled human liver microsomes (half-life). It is filed as in vitro ADME. The following applies: 1 μM test compound; for half-life at 1 μM: pooled human liver microsomes, pH 7.6, 37° C., read-out: Half-life t1/2. The protocol:
The metabolic stability of the compounds according to the invention may be investigated as follows:
The metabolic degradation of the test compound is assayed at 37° C. with pooled human liver microsomes. The final incubation volume of 100 μl per time point contains TRIS buffer pH 7.6 at room temperature (0.1 M), magnesium chloride (5 mM), microsomal protein (1 mg/mL) and the test compound at a final concentration of 1 μM. Following a short preincubation period at 37° C., the reactions are initiated by addition of beta-nicotinamide adenine dinucleotide phosphate, reduced form (NADPH, 1 mM), and terminated by transferring an aliquot into solvent after different time points. After centrifugation (10000 g, 5 min), an aliquot of the supernatant is assayed by LC-MS/MS for the amount of parent compound. The half-life is determined by the slope of the semi-logarithmic plot of the concentration-time profile.

Chain of human Somatostatin 4 receptor (SSTR4) (P31391 whole entry): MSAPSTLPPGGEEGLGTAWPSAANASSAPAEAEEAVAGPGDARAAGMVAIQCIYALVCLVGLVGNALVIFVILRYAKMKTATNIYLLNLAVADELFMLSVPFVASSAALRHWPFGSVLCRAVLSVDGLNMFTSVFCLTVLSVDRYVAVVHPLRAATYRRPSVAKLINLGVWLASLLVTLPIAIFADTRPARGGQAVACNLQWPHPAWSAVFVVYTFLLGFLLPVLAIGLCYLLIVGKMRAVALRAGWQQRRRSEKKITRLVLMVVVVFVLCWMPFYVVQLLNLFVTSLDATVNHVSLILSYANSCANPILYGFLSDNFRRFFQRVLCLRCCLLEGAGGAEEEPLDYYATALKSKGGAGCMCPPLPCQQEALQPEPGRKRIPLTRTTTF

What is called EC50 is the concentration giving half of the maximal effect. Turning to `CC(NC(=O)[C@H]1[C@@H]2CNC[C@@H]21)c1nn(C)c2ccccc12` (single isomer, unassigned) [Example 113], the EC50 in data set [1] came out at 19.2 nM. Besides, the half-life at 1 μM in data set [2] was over 2.17 h.

For `CC(NC(=O)[C@H]1[C@@H]2CNC[C@@H]21)c1nn(C)c2c(Cl)cccc12` (single isomer, unassigned) [Example 116], in data set [1], the 50% effective concentration (EC50) was determined as 2.1 nM. The half-life at 1 μM in data set [2] was over 2.17 h. The like results for `Cc1cccc2c(C(C)NC(=O)[C@H]3[C@@H]4CNC[C@@H]43)nn(C)c12` (single isomer, unassigned) [Example 119] were, in that order, 3.2 nM and over 2.17 h. The like results for `O=C(NC1(Cc2ccccc2C(F)(F)F)CC1)[C@H]1[C@@H]2CNC[C@@H]21` [Example 2] were, in that order, 56.5 nM and over 2.17 h. As to `CC(C)(NC(=O)[C@H]1[C@@H]2CNC[C@@H]21)c1ccc(Cl)c(Cl)c1.Cl` [Example 8], the concentration for a half-maximal effect (EC50) in data set [1] was determined as 2.8 nM. The half-life at 1 μM in data set [2] was over 2.17 h. With `C[C@H](NC(=O)[C@H]1[C@@H]2CNC[C@@H]21)c1cccc2ccccc12` [Example 10], the 50% effective concentration (EC50) in data set [1] is 10.7 nM. Also, the half-life at 1 μM in data set [2] is over 2.17 h. The like results for `CC(C)(COc1ccccc1C(F)(F)F)NC(=O)[C@H]1[C@@H]2CNC[C@@H]21.Cl` [Example 12] were, in that order, 0.6 nM and over 2.17 h.

Regarding `Cc1cc(F)ccc1OCC(C)(C)NC(=O)[C@H]1[C@@H]2CNC[C@@H]21.Cl` [Example 13], the EC50 in data set [1] was 2.4 nM. Moreover, the half-life at 1 μM in data set [2] is over 2.17 h. The corresponding values for `Cc1cc(Cl)ccc1OCC(C)(C)NC(=O)[C@H]1[C@@H]2CNC[C@@H]21.Cl` [Example 15] are 7.8 nM and over 2.17 h.

Consider `Cc1cc(C#N)ccc1OCC(C)(C)NC(=O)[C@H]1[C@@H]2CNC[C@@H]21.Cl` [Example 17], for which the half-maximal effective concentration (EC50) in data set [1] came out at 1 nM. The half-life at 1 μM in data set [2] was over 2.17 h. `CC(C)(COc1cccnc1C(F)(F)F)NC(=O)[C@H]1[C@@H]2CNC[C@@H]21.Cl` [Example 18]: the EC50 in data set [1] came out at 20.4 nM. Besides, the half-life at 1 μM in data set [2] was over 2.17 h. For the molecule `CC(C)(NC(=O)[C@H]1[C@@H]2CNC[C@@H]21)c1cnc2ccccn12.Cl` [Example 20], the 50% effective concentration (EC50) in data set [1] was 8.5 nM. Further, the half-life at 1 μM in data set [2] was over 2.17 h. Turning to `CC(C)(NC(=O)[C@H]1[C@@H]2CNC[C@@H]21)c1ncccc1C(F)(F)F.Cl` [Example 23], the EC50 in data set [1] was 17.5 nM. For the same molecule, in data set [2], the half-life at 1 μM is over 2.17 h. For the molecule `CC(C)(NC(=O)[C@H]1[C@@H]2CNC[C@@H]21)C1CCc2ccccc2O1.Cl` (stereo partly shown) [Example 28], the concentration giving a half-maximal response (EC50) in data set [1] is 11.3 nM. The half-life at 1 μM in data set [2] was over 2.17 h. The like results for `CC(C)(NC(=O)[C@H]1[C@@H]2CNC[C@@H]21)c1nc(C(F)(F)F)c2ccccn12.Cl` [Example 31] were, in that order, 1.9 nM and over 2.17 h.

As to `Cn1nc(C(C)(C)NC(=O)[C@H]2[C@@H]3CNC[C@@H]32)c2cccnc21` [Example 32], the concentration giving a half-maximal response (EC50) in data set [1] turned out to be 9.9 nM. In addition, the half-life at 1 μM in data set [2] was over 2.17 h. Turning to `Cc1cc(C(C)(C)NC(=O)[C@H]2[C@@H]3CNC[C@@H]32)c2ccccc2n1` [Example 33], the half-maximal effective concentration (EC50) in data set [1] came out at 4.6 nM. For the same molecule, in data set [2], the half-life at 1 μM is over 2.17 h. For the molecule `Cc1ccncc1OCC(C)(C)NC(=O)[C@H]1[C@@H]2CNC[C@@H]21` [Example 38], the EC50 in data set [1] worked out at 27.8 nM. For the same molecule, the half-life at 1 μM in data set [2] was over 2.17 h. The corresponding values for `CCc1ccccc1OCC(C)(C)NC(=O)[C@H]1[C@@H]2CNC[C@@H]21.Cl` [Example 39] are 3 nM and over 2.17 h. The like results for `CC(C)(COc1ccccc1Cl)NC(=O)[C@H]1[C@@H]2CNC[C@@H]21.Cl` [Example 42] were, in that order, 14.7 nM and over 2.17 h. The corresponding values for `Cc1cccc(OCC(C)(C)NC(=O)[C@H]2[C@@H]3CNC[C@@H]32)c1` [Example 43] are 185 nM and over 2.17 h. Regarding `Cc1ncccc1OCC(C)(C)NC(=O)[C@H]1[C@@H]2CNC[C@@H]21.Cl` [Example 44], the EC50 in data set [1] is 361 nM. The half-life at 1 μM in data set [2] is over 2.17 h. On to `Cc1nc(C(C)(C)NC(=O)[C@H]2[C@@H]3CNC[C@@H]32)n2ccccc12` [Example 45], for which the concentration giving a half-maximal response (EC50) in data set [1] came out at 1.2 nM. For the same molecule, the half-life at 1 μM in data set [2] was over 2.17 h. For the molecule `Cc1cc(F)cnc1OCC(C)(C)NC(=O)[C@H]1[C@@H]2CNC[C@@H]21` [Example 48], the EC50 in data set [1] is 3.7 nM. Also, the half-life at 1 μM in data set [2] was over 2.17 h. For `CC(C)(NC(=O)[C@H]1[C@@H]2CNC[C@@H]21)c1noc2ccccc12` [Example 51], the EC50 in data set [1] stood at 7.4 nM. Moreover, in data set [2], the half-life at 1 μM was over 2.17 h.

Consider `CC(C)(COc1ncccc1C(F)(F)F)NC(=O)[C@H]1[C@@H]2CNC[C@@H]21` [Example 52], for which the EC50 in data set [1] was 2.4 nM. In addition, the half-life at 1 μM in data set [2] was over 2.17 h. The corresponding values for `CC(C)(COc1cnc(Cl)c2ccccc12)NC(=O)[C@H]1[C@@H]2CNC[C@@H]21` [Example 53] are 9.8 nM and 0.783 h. The corresponding values for `CC(C)(COc1cnccc1C1CC1)NC(=O)[C@H]1[C@@H]2CNC[C@@H]21` [Example 57] are 16.3 nM and over 2.17 h. In the case of `Cn1nc(C(C)(C)NC(=O)[C@H]2[C@@H]3CNC[C@@H]32)c2cccc(Cl)c21` [Example 106], the half-life at 1 μM in data set [2] was over 2.17 h.

In the case of `Cc1cccc2c(C(C)(C)NC(=O)[C@H]3[C@@H]4CNC[C@@H]43)n(C)nc12` [Example 108], the half-life at 1 μM in data set [2] is over 2.17 h.

With `CC(C)(NC(=O)[C@H]1[C@@H]2CNC[C@@H]21)c1n[nH]c2c(C(F)(F)F)cccc12` [Example 110], the “Half-life t1/2” value in data set [2] (37° C.) was over 2.17 h. Consider `CC(C)(NC(=O)[C@H]1[C@@H]2CNC[C@@H]21)c1ncc2c(OC(F)(F)F)cccn12` [Example 152], for which the EC50 in data set [1] turned out to be 26.1 nM. As for `CC(C)(NC(=O)[C@H]1[C@@H]2CNC[C@@H]21)c1ncnc2c(F)cccc12` [Example 154], the EC50 in data set [1] came out at 7.6 nM. As for `COc1ccn2c(C(C)(C)NC(=O)[C@H]3[C@@H]4CNC[C@@H]43)nc(C)c2c1` [Example 155], the EC50 in data set [1] is 94.7 nM. `Cc1nc(C(C)(C)NC(=O)[C@H]2[C@@H]3CNC[C@@H]32)c2cccc(F)c2n1` [Example 157]: in data set [1], the EC50 came out at 36.9 nM.

As to `Cc1cccn2c([C@@H](C)NC(=O)[C@H]3[C@@H]4CNC[C@@H]43)ncc12` [Example 160], in data set [1], the EC50 is 42.4 nM.

As for `Cc1nc(C(C)NC(=O)[C@H]2[C@@H]3CNC[C@@H]32)c2ccccc2n1` (stereo partly shown) [Example 161], the concentration for a half-maximal effect (EC50) in data set [1] came out at 764 nM.

As to `Cc1nc(C(C)NC(=O)[C@H]2[C@@H]3CNC[C@@H]32)c2cccc(C)c2n1` (stereo partly shown) [Example 162], the concentration for a half-maximal effect (EC50) in data set [1] stood at 128 nM.

On to `O=C(NC1(c2nc3ccc(Cl)cc3[nH]2)CCOC1)[C@H]1[C@@H]2CNC[C@@H]21` (stereo partly shown) [Example 169], for which the EC50 in data set [1] is 313 nM. Consider `Cc1ccc(C(C)(C)NC(=O)[C@H]2[C@@H]3CNC[C@@H]32)c(C)n1` [Example 172], for which the concentration giving a half-maximal response (EC50) in data set [1] was 520 nM.

In the case of `CC(C)(NC(=O)[C@H]1[C@@H]2CNC[C@@H]21)C1COc2ccccc21` (stereo partly shown) [Example 173], the 50% effective concentration (EC50) in data set [1] is 237 nM. For `Cn1nc(C(C)(C)NC(=O)[C@H]2[C@@H]3CNC[C@@H]32)c2c1CCCC2` [Example 176], the EC50 in data set [1] came to 1.2 nM. As for `Cc1cc(C)c(C(C)(C)NC(=O)[C@H]2[C@@H]3CNC[C@@H]32)cn1` [Example 177], the EC50 in data set [1] is 9.1 nM. On to `CC(C)(NC(=O)[C@H]1[C@@H]2CNC[C@@H]21)C1CCOc2ccccc21` (stereo partly shown) [Example 178], for which the EC50 in data set [1] came to 22.4 nM. In the case of `CC(C)(NC(=O)[C@H]1[C@@H]2CNC[C@@H]21)c1ncc2n1CCCC2` [Example 181], the EC50 in data set [1] came out at 41.3 nM. The same measure, in the same setting: next, `Cc1cccn2c(C3(NC(=O)[C@H]4[C@@H]5CNC[C@@H]54)CCOCC3)ncc12` [Example 182]: 68.5 nM. As to `Cc1cccn2c(C(C)(NC(=O)[C@H]3[C@@H]4CNC[C@@H]43)C3CC3)ncc12` (stereo partly shown) [Example 183], in data set [1], the EC50 came out at 9.9 nM. Still for that read-out and setting: next, `Cc1cccn2c(C(C)(C)NC(=O)[C@H]3[C@@H]4CNC[C@@H]43)ccc12` [Example 184]: 0.4 nM.

Source of the values: patent publication US9789082B2, “Somatostatin receptor subtype 4 (SSTR4) agonists” (Centrexion Therapeutics Corporation, priority 2013, dated 2017).
